Source: patent US7071227B2, “Antiviral compositions and methods of use” (The Johns Hopkins University, priority 2000, dated 2006)
In brackets after ≈: the same amount, converted by molar mass. Several values for one entry are separate records, joined by “and”; a condition that tells them apart may be missing. Equal values may be shown once. Read-outs that look alike come from different tables or passages of the source.

Columns and labels:
HIV-1 integrase = HIV-1 integrase (Human immunodeficiency virus type 1 group M subtype B, UniProt P12497); test: HIV-1 integrase 3'-end processing assay; assay type: biochemical
Protocol: The HIV-1 integrase assay utilized in testing described below used a DNA substrate consisting of a DNA sequence derived from the U5 end of HIV-1 LTR. It was prepared by annealing oligonucleotide U5V1 (5′-[…]) with its complementary strand U5V2 (3′-[…]). The U5V1 strand was labeled at the 5′-end with [γ-^32P] ATP using T4 polynucleotide kinase as described previously (Kamata et al., 1994). The standard reaction mixture included reaction buffer (40 mM HEPES, pH 7.5, 20 mM MnCL2, 60 mM NaCl, 20 mM DTT and 0.1% Nonidet-P40) and HIV-1 integrase (NIH AIDS Research and Reference Reagent Program). To assay for 3′-end processing, the labeled substrate was incubated with the reaction mixture for 60 minutes at 37° C. An equal volume of stop solution (95% formamide, 30 mM EDTA, 0.1% xylene cyanol, 0.1% bromophenol blue) was added to each reaction and the samples were heated to 95°′ C. for 5 minutes to denature the DNA. The samples were then fractionated by electrophorsis on a 15% denaturing polyacrylamide gel. The 3′-end processing activity was monitored by the appearance of a radioactive oligonucleotides product (33 nt), shortened by two nucleotides from the original substrate (35 nt). The products were visualized by autoradiography and quantitation was carried out by phosphorimaging.

[1] = system: HIV-1IIIBA17 and HIV-1L10R/M461/L63P/V82T/184V; test: HIV replication in infected H9 cells, HIV/p24 monoclonal antibody assay; assay type: cell-based; conditions: Human immunodeficiency virus 1, H9, read-out: IC50 against HIV replication
Protocol: The following cells and virus strains were obtained from the AIDS Research and Reference Regent Program, Division of AIDS, National Institute of Allergy and Infectious Diseases: H9 cells, virus strains of HIV-1IIIBA17, a variant resistant to RT nonnucleotide inhibitors and HIV-1L10R/M461/L63P/V82T/184V, a protease inhibitor resistant virus, as well as viral strains HTLV-IIImn, HIV-1RTMF and HTLV-IIIB. Virus-infected H9 cells were cultured in the presence of different concentrations of M522 and M532 and viral replication was assayed using the HIV/p24 monoclonal antibody assay.
The inhibitory effect of M522 and M532 against HIV replication was further examined using HIV-1IIIBA17, a variant resistant to RT nonnucleotide inhibitors and HIV-1L10R/M461/L63P/V82T/184V, a protease inhibitor resistant virus, as testing viruses in the presence of a variety of drug concentrations in infected H9 cells.
FIG. 7A graphically illustrates the effect of M522 and M532 on HIV-1 replication. FIG. 7A illustrates the dose-dependent inhibition of HIV-1 replication in H9 cells infected with HIV-1IIIBA17 and HIV-1L10R/M461/L63P/V82T/184V viruses in the presence of different drug concentrations of M522 and M532.

H9 cells = test: MTT cytotoxicity assay; assay type: cell-based, human; conditions: 4 days
Protocol: The cytotoxicity of M522 and M532 drugs against H9 cells was analyzed using MTT [3-(4,5-dimethylthiazol-2-yl)-2,5-diphenyltetrazolium bromide] assay (Sigma Chemical Co.) (Uckun et al., 1998). Briefly, exponentially growing H9 cells were seeded onto 96-well plates at a density of 3×10^4 cells/well and incubated for 24 h at 37° C. prior to drug exposure. On the day of treatment, a series Of M522 and M532 concentrations (1.25, 2.5, 5, 10, 20, 40, 80, and 160 μg/ ml) were used to test their cytotoxicity in H9 cells. Quadruplicate wells were used for each treatment. The cells were incubated with M522 and M532 for 4 days at 37° C. in a humidified 5% CO2 atmosphere. To each well, 50 μl of MTT (1 mg/ml final concentration) was added and the plates were incubated at 37° C. for 4 h to allow MTT to form formazan crystals by reacting with metabolically active cells. The formazan crystals were solubilized with DMSO. The absorbance of each well was measured in a microtiter reader at optical density 540 nm. The reaction is specific, no significant amounts of formazan can be detected with dead cells.

HIV-1RTMF = test: HIV-1 replication in H9 cells, p24 antigen assay; assay type: cell-based; conditions: for inhibition at 1.25 µg/mL / inhibition at 2.5 µg/mL / inhibition at 5 µg/mL / inhibition at 10 µg/mL / inhibition at 20 µg/mL / inhibition at 40 µg/mL / inhibition at 80 µg/mL: Human immunodeficiency virus 1, H9; for IC50: Human immunodeficiency virus 1, H9, 192 h, read-out: IC50, HIV-1 replication
Protocol: (§1) Inhibitory activity of M522 and M532 against the replication of four different HIV-1 strains was tested in this example. Two of the strains were drug-resistant virus isolates (HIV-1RTMF resistant against AZT and HIV-1IIIBA17 variant resistant against inhibition by RT nonnucleotide inhibitors) and the other two were primary isolates (HTLV-IIIMN and HTLV-IIIB).
(§2) On the day before infection, H9 cells were subcultured at 1–2×10^5 cells/ml and on the day of the infection, cells were pelleted by centrifugation at room temperature for 10 minutes. The pellet was then resuspended with 1 ml of each strain according to the virus titer. The mixtures were incubated at 37 ° C. in CO2 incubator for 2 hours. The cells were then washed two times with PBS and then two times with the culture medium (RPMI 1640). The cells were resuspended with fresh medium and plated in 96 well plates. Every 3–4 days after infection, cells were sub-cultured and supernatant was saved to assay for virus production.
(§3) The activity of M522 against the four strains were tested at various drug concentrations of 80, 40, 20, 10, 5, 2.5, 1.25, and 0 μg/ml. After 8 days, the infection of the cells was detected by using HIV-1 p24 antigen assay, which is an enzyme immunoassay (EIA, or enzyme-linked immunosorbent assay) developed for detection and quantitation of the HIV-1 p24 core protein.

HTLV-IIIMN = test: HIV-1 replication in H9 cells, p24 antigen assay; assay type: cell-based; conditions: for IC50: Human immunodeficiency virus 1, 192 h, H9 cells, 8 days; for inhibition at 1.25 µg/mL: Human immunodeficiency virus 1, H9, 1.25 μg/ml; for inhibition at 2.5 µg/mL: Human immunodeficiency virus 1, H9, 2.5 μg/ml; for inhibition at 5 µg/mL: Human immunodeficiency virus 1, H9, 5.0 μg/ml; for inhibition at 10 µg/mL: Human immunodeficiency virus 1, H9, 10.0 μg/ml; for inhibition at 20 µg/mL: Human immunodeficiency virus 1, H9, 20.0 μg/ml; for inhibition at 40 µg/mL: Human immunodeficiency virus 1, H9, 40.0 μg/ml; for inhibition at 80 µg/mL: Human immunodeficiency virus 1, H9, 80.0 μg/ml
Protocol: as §1, §2, §3

HIV-1IIIBA17 variant = test: HIV-1 replication in H9 cells, p24 antigen assay; assay type: cell-based; conditions: for inhibition at 1.25 µg/mL / inhibition at 2.5 µg/mL / inhibition at 5 µg/mL / inhibition at 10 µg/mL / inhibition at 20 µg/mL / inhibition at 40 µg/mL / inhibition at 80 µg/mL: Human immunodeficiency virus 1, H9; for IC50: Human immunodeficiency virus 1, H9, 192 h, read-out: IC50, HIV-1 replication
Protocol: as §1, §2, §3

HTLV-IIIB = test: HIV-1 replication in H9 cells, p24 antigen assay; assay type: cell-based; conditions: for IC50: Human immunodeficiency virus 1, 192 h, H9 cells, 8 days; for inhibition at 1.25 µg/mL: Human immunodeficiency virus 1, H9, 1.25 μg/ml; for inhibition at 2.5 µg/mL: Human immunodeficiency virus 1, H9, 2.5 μg/ml; for inhibition at 5 µg/mL: Human immunodeficiency virus 1, H9, 5.0 μg/ml; for inhibition at 10 µg/mL: Human immunodeficiency virus 1, H9, 10.0 μg/ml; for inhibition at 20 µg/mL: Human immunodeficiency virus 1, H9, 20.0 μg/ml; for inhibition at 40 µg/mL: Human immunodeficiency virus 1, H9, 40.0 μg/ml; for inhibition at 80 µg/mL: Human immunodeficiency virus 1, H9, 80.0 μg/ml
Protocol: as §1, §2, §3

| SMILES | IC50 [1] | CC100; cells remained viable at highest concentration tested (H9 cells) | inhibition at 1.25 µg/mL (HIV-1RTMF) | inhibition at 2.5 µg/mL (HIV-1RTMF) | inhibition at 5 µg/mL (HIV-1RTMF) | inhibition at 10 µg/mL (HIV-1RTMF) | inhibition at 20 µg/mL (HIV-1RTMF) | inhibition at 40 µg/mL (HIV-1RTMF) | inhibition at 80 µg/mL (HIV-1RTMF) | IC50 (HIV-1RTMF) | IC50 (HTLV-IIIMN) | inhibition at 1.25 µg/mL (HTLV-IIIMN) | inhibition at 2.5 µg/mL (HTLV-IIIMN) | inhibition at 5 µg/mL (HTLV-IIIMN) | inhibition at 10 µg/mL (HTLV-IIIMN) | inhibition at 20 µg/mL (HTLV-IIIMN) | inhibition at 40 µg/mL (HTLV-IIIMN) | inhibition at 80 µg/mL (HTLV-IIIMN) | inhibition at 1.25 µg/mL (HIV-1IIIBA17 variant) | inhibition at 2.5 µg/mL (HIV-1IIIBA17 variant) | further results |
| --- | --- | --- | --- | --- | --- | --- | --- | --- | --- | --- | --- | --- | --- | --- | --- | --- | --- | --- | --- | --- | --- |
| O=C(/C=C/c1ccc(O)c2c1[C@H](C(=O)O)[C@@H](c1ccc(O)c(O)c1)O2)O[C@H](Cc1ccc(O)c(O)c1)C(=O)O [M522, 4-{2-[1-carboxy-2-(3,4-dihydroxy-phenyl)-ethoxycarbonyl]-vinyl}-2-(3,4-dihydroxy-phenyl)-7-hydroxy-2,3-dihydro-benzofuran-3-carboxylic acid] | 1.5 µg/mL and 2.7 µM | > 297 µM | 26.2% | 47.7% | 78.6% | 83.4% | 95.5% | 98.2% | 100% | 2.7 µg/mL (≈ 5.01 µM) | 9 µg/mL (≈ 16.7 µM) | 7.7% | 21.8% | 30% | 51.9% | 72.1% | 77.3% | 88.4% | 51.2% | 53.6% | IC50 (HIV-1 integrase; read-out: IC50, inhibition of HIV-1 integrase 3' processing activity (converted)): 836 nM and 830 nM; inhibition at 5 µg/mL (HIV-1IIIBA17 variant): 76.8%; inhibition at 10 µg/mL (HIV-1IIIBA17 variant): 85%; inhibition at 20 µg/mL (HIV-1IIIBA17 variant): 90.2%; inhibition at 40 µg/mL (HIV-1IIIBA17 variant): 100%; inhibition at 80 µg/mL (HIV-1IIIBA17 variant): 100%; IC50 (HIV-1IIIBA17 variant): 1.5 µg/mL (≈ 2.79 µM); IC50 (HTLV-IIIB): 11 µg/mL (≈ 20.4 µM); inhibition at 1.25 µg/mL (HTLV-IIIB): 31.4%; inhibition at 2.5 µg/mL (HTLV-IIIB): 42.1%; inhibition at 5 µg/mL (HTLV-IIIB): 45.9%; inhibition at 10 µg/mL (HTLV-IIIB): 47.3%; inhibition at 20 µg/mL (HTLV-IIIB): 62%; inhibition at 40 µg/mL (HTLV-IIIB): 82.4%; inhibition at 80 µg/mL (HTLV-IIIB): 94.5% |
| O=C(/C=C/c1ccc(O)c2c1[C@H](C(=O)O[C@H](Cc1ccc(O)c(O)c1)C(=O)O)[C@@H](c1ccc(O)c(O)c1)O2)O[C@H](Cc1ccc(O)c(O)c1)C(=O)O [M532, 4-{2-[1-carboxy-2-(3,4-dihydroxy-phenyl)-ethoxycarbonyl]-vinyl}-2-(3,4-dihydroxy-phenyl)-7-hydroxy-2,3-dihydro-benzofuran-3-carboxylic acid 1-carboxy-2-(3,4-dihydroxy-phenyl)-ethyl ester] | 1 µg/mL and 1.39 µM | > 223 µM | 20.8% | 38.7% | 44.2% | 73.6% | 90.4% | 95% | 98.3% | 5.6 µg/mL (≈ 7.79 µM) | 5.5 µg/mL (≈ 7.65 µM) | 8.3% | 45.7% | 47% | 57.2% | 87% | 90% | 94.1% | 2% | 21.8% | IC50 (HIV-1 integrase; IC50, inhibition of HIV-1 integrase 3' processing activity): 487 nM and 450 nM; inhibition at 5 µg/mL (HIV-1IIIBA17 variant): 50%; inhibition at 10 µg/mL (HIV-1IIIBA17 variant): 53.6%; inhibition at 20 µg/mL (HIV-1IIIBA17 variant): 97.5%; inhibition at 40 µg/mL (HIV-1IIIBA17 variant): 97.7%; inhibition at 80 µg/mL (HIV-1IIIBA17 variant): 98.4%; IC50 (HIV-1IIIBA17 variant): 5 µg/mL (≈ 6.96 µM); IC50 (HTLV-IIIB): 11 µg/mL (≈ 15.3 µM); inhibition at 1.25 µg/mL (HTLV-IIIB): 4.7%; inhibition at 2.5 µg/mL (HTLV-IIIB): 16.1%; inhibition at 5 µg/mL (HTLV-IIIB): 20.1%; inhibition at 10 µg/mL (HTLV-IIIB): 34.5%; inhibition at 20 µg/mL (HTLV-IIIB): 90.8%; inhibition at 40 µg/mL (HTLV-IIIB): 96.2%; inhibition at 80 µg/mL (HTLV-IIIB): 96.8% |
